Measured values reported in US20260102457A1, “ANTICOAGULANT-PEPTIDE NANOGRANULES FOR THROMBOSIS-ACTUATED ANTICOAGULATION” (The Penn State Research Foundation, priority 2022, published 2026).
Where no end group is shown, it is not given here.

Assays:
[1] = clinical background; cited from earlier work
[2] = In vivo heparin serum/plasma concentration over time; parameters: species or system C57BL/6J mice; settings: for time of highest heparin serum concentration: first sampling timepoint; for time to complete clearance from serum: post administration; for heparin serum half-life (t1/2): single dose 10 IU heparin
Protocol: (§1) Murine studies were performed under IACUC protocol 202102036. HMG particles were prepared using rhodamine-heparin doped 20 vol % into unlabeled heparin before electrospray synthesis. Dialyzed HMG particles were concentrated by Centri Vap DNA Concentrator to achieve 0.5 mg/mL equivalent heparin. Sterile 10×PBS was diluted ten-fold into samples before injection of a 200 μL volume into C57BL/6J mice. Two groups (n=4) received free heparin given via tail vein injection or injected subcutaneously in the neck scruff. A third group (n=4) received HMG sample as a subcutaneous depot in the neck scruff. All mice received a final heparin dose of 10 IU. At each time point, mice were sacrificed, and blood samples collected into citrate tubes via cardiac puncture. Coagulation time was determined on whole blood samples via INTEM analysis on a ROTEM delta coagulation analyzer (Werfen; Bedford, MA). Clotting times were chosen to evaluate the efficacy of each treatment's ability to inhibit thrombin-linked platelet activation and initial fibrin polymerization/recruitment. INTEM coagulation analysis was selected based on its established sensitivity for the presence of heparin. For a typical experiment, serum is isolated via centrifugation (1000 rcf, 10 minutes) and fluorescence measurements taken (λex=560 nm, λem=590 nm). Kidney, liver, and spleen tissues were also collected and homogenized before centrifugation at 10,000 rcf for 20 minutes to remove bulk fibrous structures. 100 μL of the remaining supernatant was evaluated for heparin presence via fluorescence measurements (λex=560 nm, λem=590 nm) using a BioTek Cytation 3 Plate Reader.

[3] = Tissue biodistribution of heparin (liver, kidney, spleen fluorescence); type: in vivo, C57BL/6J mice; settings: kidneys
Protocol: as §1, with “INTEM coagulation analysis was selected based on its established sensitivity for the presence of heparin.” left out, “Kidney, liver, and spleen tissues were also collected and homogenized before centrifugation at 10,000 rcf for 20 minutes to remove bulk fibrous structures.” left out

whole blood coagulation = test: In vivo anticoagulation: blood clotting time (INTEM, ROTEM); parameters: species or system C57BL/6J mice
Protocol: as §1

activated platelets = test: Platelet localization and binding (confocal microscopy, flow cytometry); type: cell-based, bovine; settings: 15 minutes incubation
Protocol: Bovine platelets were acquired from bovine PRP by centrifugation (800 rcf, 15 minutes), labelled with DiI (5 μg/mL), washed, and resuspended in PBS. At the time of treatment, platelets were further centrifuged (800 rcf, 15 minutes) to replace PBS supernatant with treatment solutions. Treatments of AMCA/FITC HMG, FITC-MAD1, or AMCA-heparin were prepared in PBS at equivalent concentrations, incubated with platelet samples for 15 minutes and then transferred to 4-well chambered slide (500 μL) before imaging using an Olympus FluoView 1000 confocal microscope (Tokyo, Japan).
MAD1-platelet binding was analyzed via flow cytometry by resuspending platelets in PBS containing 1 mg/mL FITC-MAD1. Blank PBS was used as an untreated control. After a 15-minute incubation, treated platelets were centrifuged (800 rcf, 15 minutes) and resuspended in PBS before analysis using a Guava Flow Cytometer (Millipore Sigma; Burlington, MA). Data was analyzed by FlowJo software.

[4] = test system: bovine platelet rich plasma (PRP); settings: equivalent heparin concentration of 2 μg/mL, FIG. 3b
Protocol: Here, bovine PRP was acquired from the top clear layer after centrifuging citrated bovine whole blood at 600 rcf for 30 minutes (4° C.) with minimum acceleration/break ramps. […] Clot formation was initiated by combining 450 μL bovine PRP, 50 μL HMG treatment solution, and 50 μL 0.1M CaCl2) in a 24-well plate. DI water was included as a negative control. Samples were mixed on an oscillating rocker plate and clotting time determined as the time required for observable aggregate formation upon recalcification.

| Substance | plasma half-life (t1/2) [1] [h] | time of highest heparin serum concentration ([2]; intravenous) [min] | time to complete clearance from serum ([2]; intravenous) [h] | heparin serum half-life (t1/2) ([2]; intravenous) [h] | time of transient spike in heparin serum concentration after dosing ([2]; subcutaneous) [h] | time of highest heparin serum concentration ([2]; subcutaneous) [min] | time to complete clearance from serum ([2]; subcutaneous) [h] | heparin serum half-life (t1/2) ([2]; subcutaneous) [h] | tissue biodistribution / clearance route of heparin ([3]; intravenous) | tissue biodistribution / clearance route of heparin ([3]; subcutaneous) | blood clotting time (whole blood coagulation; intravenous, 0.5 hour time point) [min] | time to return to basal clotting activity (whole blood coagulation; intravenous, post administration, basal 3.5 minutes) | change in clotting behavior (whole blood coagulation; subcutaneous, 0.5-24 hours) | binding to activated platelets (activated platelets) | clotting time of blood treated with peptide alone [4] |
| --- | --- | --- | --- | --- | --- | --- | --- | --- | --- | --- | --- | --- | --- | --- | --- |
| heparin | ~1 | 30 | ~6 | 1.3 | 4 to 6 | 30 | ~6 | 1.4 | initially excreted through the renal system, with additional hepatic clearance observed at ˜6 hours | early liver uptake that later shifted to renal clearance | 35.5 | approximately 2 hours | negligible changes in clotting behavior for all time points except 6 hours | – | – |
| KRWHWWRRHWVVW-NH2 [MAD1] | – | – | – | – | – | – | – | – | – | – | – | – | – | high avidity | significant increase in clotting time |
